Reference: PubChem BioAssay (NCI)
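Step 1: Grow cells in 96-well plates. Step 2: Expose to compound for 48 hours at 5 concentrations. Step 3: Interpolate endpoints linearly; if unreached, use highest concentration. Here, GI50 denotes the concentration required for 50% inhibition of growth. The concentration for full growth arrest is given as TGI.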

How the values were obtained:
Test in all cases: NCI anticancer screen, dose series, 48 h
[1] = tested on: TK-10 renal
[2] = tested on: SN12C renal
[3] = tested on: OVCAR-3 ovarian
[4] = tested on: PC-3 prostate
[5] = tested on: OVCAR-8 ovarian
[6] = tested on: A498 renal
[7] = tested on: LOX IMVI melanoma
[8] = tested on: MCF7 breast
[9] = tested on: HT29 colon
[10] = tested on: RXF 393 renal
[11] = tested on: MDA-MB-231 breast
[12] = tested on: U251 CNS
[13] = tested on: NCI-H226 lung
[14] = tested on: HCT-116 colon
[15] = tested on: NCI/ADR-RES ovarian
[16] = tested on: M14 melanoma
[17] = tested on: HS 578T breast
[18] = tested on: SF-268 CNS
[19] = tested on: A549 NSCLC
[20] = tested on: RPMI-8226 leukemia
[21] = tested on: MDA-MB-435
[22] = tested on: HOP-92 NSCLC
[23] = tested on: MOLT-4 leukemia
[24] = tested on: HCT-15 colon
[25] = tested on: SK-OV-3 ovarian
[26] = tested on: OVCAR-4 ovarian
[27] = tested on: SK-MEL-28 melanoma
[28] = tested on: SNB-75 CNS
[29] = tested on: HL-60(TB) leukemia
[30] = tested on: IGROV1 ovarian
[31] = tested on: SF-295 CNS
[32] = tested on: CAKI-1 renal
[33] = tested on: T-47D breast
[34] = tested on: CCRF-CEM leukemia
[35] = tested on: UACC-257 melanoma
[36] = tested on: SK-MEL-5 melanoma
[37] = tested on: NCI-H522 lung
[38] = tested on: HOP-62 NSCLC
[39] = tested on: UO-31 renal
[40] = tested on: SK-MEL-2 melanoma
[41] = tested on: OVCAR-5 ovarian
[42] = tested on: HCC-2998 colon
[43] = tested on: NCI-H23 lung
[44] = tested on: SF-539 CNS
[45] = tested on: 786-0 renal
[46] = tested on: ACHN renal
[47] = tested on: UACC-62 melanoma
[48] = tested on: MALME-3M melanoma
[49] = tested on: SR leukemia
[50] = tested on: BT-549 breast
[51] = tested on: DU-145 prostate
[52] = tested on: COLO 205 colon
[53] = tested on: SNB-19 CNS
[54] = tested on: NCI-H460 lung
[55] = tested on: SW-620 colon
[56] = tested on: KM12 colon
[57] = tested on: K-562 leukemia

SMILES: N#CC1c2ccccc2C=CN1C(=O)CCCl (centres undefined)
- GI50 [1]: 2.16 µM
- TGI [1]: 6.02 µM
- GI50 [2]: 15.6 µM
- TGI [2]: 34.9 µM
- GI50 [3]: 2.51 µM
- TGI [3]: 6.1 µM
- GI50 [4]: 14.1 µM
- TGI [4]: 28.5 µM
- GI50 [5]: 14.4 µM
- TGI [5]: 30.6 µM
- GI50 [6]: 11.7 µM
- TGI [6]: 25.8 µM
- GI50 [7]: 3.94 µM
- TGI [7]: 13.4 µM
- GI50 [8]: 2.6 µM
- TGI [8]: 12.5 µM
- GI50 [9]: 11.1 µM
- TGI [9]: 26.2 µM
- GI50 [10]: 11.8 µM
- TGI [10]: 25.9 µM
- GI50 [11]: 8.78 µM
- TGI [11]: 23.8 µM
- GI50 [12]: 17.6 µM
- TGI [12]: 32 µM
- GI50 [13]: 17.6 µM
- TGI [13]: 54.9 µM
- GI50 [14]: 3.59 µM
- TGI [14]: 11.3 µM
- GI50 [15]: 23 µM
- TGI [15]: 66.3 µM
- GI50 [16]: 13.6 µM
- TGI [16]: 27.6 µM
- GI50 [17]: 17.4 µM
- TGI [17]: 47.3 µM
- GI50 [18]: 15.2 µM
- TGI [18]: 30.9 µM
- GI50 [19]: 20.1 µM
- TGI [19]: 37.3 µM
- GI50 [20]: 2.66 µM
- TGI [20]: 9.25 µM
- GI50 [21]: 12.4 µM
- TGI [21]: 27.1 µM
- GI50 [22]: 1.53 µM
- TGI [22]: 3.76 µM
- GI50 [23]: 7.88 µM
- TGI [23]: 51.2 µM
- GI50 [24]: 2.87 µM
- TGI [24]: 9.55 µM
- GI50 [25]: 17.2 µM
- TGI [25]: 31.3 µM
- GI50 [26]: 2.79 µM
- TGI [26]: 10.7 µM
- GI50 [27]: 10.7 µM
- TGI [27]: 24 µM
- GI50 [28]: 10.6 µM
- TGI [28]: 25.3 µM
- GI50 [29]: 9.09 µM
- TGI [29]: 40.8 µM
- GI50 [30]: 6.68 µM
- TGI [30]: 13.8 µM
- GI50 [31]: 29.4 µM
- TGI [31]: > 87.5 µM
- GI50 [32]: 8.38 µM
- TGI [32]: 22.7 µM
- GI50 [33]: 3.65 µM
- TGI [33]: 17.1 µM
- GI50 [34]: 3.45 µM
- TGI [34]: 21.2 µM
- GI50 [35]: 13.1 µM
- TGI [35]: 26.5 µM
- GI50 [36]: 16.6 µM
- TGI [36]: 30.6 µM
- GI50 [37]: 1.52 µM
- TGI [37]: 2.92 µM
- GI50 [38]: 19.8 µM
- TGI [38]: 40.6 µM
- GI50 [39]: 2.32 µM
- TGI [39]: 7.2 µM
- GI50 [40]: 13.6 µM
- TGI [40]: 28 µM
- GI50 [41]: 10.3 µM
- TGI [41]: 25.9 µM
- GI50 [42]: 16.9 µM
- TGI [42]: 32 µM
- GI50 [43]: 17.6 µM
- TGI [43]: 40.9 µM
- GI50 [44]: 8.06 µM
- TGI [44]: 22.3 µM
- GI50 [45]: 14 µM
- TGI [45]: 28 µM
- GI50 [46]: 1.73 µM
- TGI [46]: 3.22 µM
- GI50 [47]: 14.9 µM
- TGI [47]: 29.7 µM
- GI50 [48]: 2 µM
- TGI [48]: 4.01 µM
- GI50 [49]: 3.07 µM
- TGI [49]: 26.7 µM
- GI50 [50]: 16.9 µM
- TGI [50]: 30.7 µM
- GI50 [51]: 9.04 µM
- TGI [51]: 21.9 µM
- GI50 [52]: 2.48 µM
- TGI [52]: 5.65 µM
- GI50 [53]: 20.1 µM
- TGI [53]: 52.9 µM
- GI50 [54]: 18.4 µM
- TGI [54]: 36.3 µM
- GI50 [55]: 2.36 µM
- TGI [55]: 6.53 µM
- GI50 [56]: 16.9 µM
- TGI [56]: 42.6 µM
- GI50 [57]: 4.03 µM
- TGI [57]: 60 µM
